Test results: patent US10300096B2, “Use of adenoviruses and nucleic acids that code for said viruses” (priority 2003, dated 2019)

Key:
Format in all cases: cell-based
[1] = system: coxsackievirus-adenovirus-receptor (CAR) on U373 cells; assay: CAR expression by Facs-analysis; conditions: 1 μM Trichostatin for 24 hours; 11.3% without treatment
Procedure: 200,000 U373 cells were plated in 6 well plates. After 24 hours the cells were cultivated with 1 μM Trichostatin for 24 hours. After another 24 hours the cells were isolated. Subsequently, analysis of CAR expression was performed according to a standard protocol using Facs-analysis and the primary antibody anti-CAR clone RmcB from the company Upstate, and a rabbit anti-mouse FITC as secondary antibody (company DAKO).

U373 tumour cells [2] = assay: Replication of dl520 after administration of Trichostatin A, Southern blot; conditions: 0.25, 0.5 and 0.75 μM Trichostatin A 24 hours before infection with 10 pfu dl520/cell, compared to untreated controls
Procedure: In order to test the effect of Trichostatin A on adenoviral replication, 10^6 U373 tumour cells were plated in 10 cm^2 Petri dishes. After 24 hours 0, 0.25, 0.5 and 0.75 μM Trichostatin A was added. After another 24 hours the cells were infected with 10 pfu dl520/cell.
After 3 days of incubation in medium without Trichostatin DNA was isolated. Subsequently 2 μg DNA were digested with restriction enzyme Kpn I and a Southern Blot analysis performed. A part of the adenoviral genome (position: 22734-24235) generated by means of PCR was used as a probe.

U373 tumour cells [3] = assay: Replication of dl520 after addition of Irinotecan, Southern blot; conditions: 5 μM Irinotecan 24 hours before infection with 10 pfu/cell dl520, compared to untreated control
Procedure: In order to determine the effect of Irinotecan on adenoviral replication 10^6 U373 tumour cells were plated in 10 cm^2 Petri dishes. In a first reaction 5 μM Irinotecan was added after 24 hours. After another 24 hours the cells were infected with 10 pfu/cell dl520. After incubation of 3 days without Irinotecan DNA was isolated in accordance with the procedure described in example 10.
In a parallel reaction the thus prepared U373-cells were not pre-incubated with Irinotecan. After 48 hours of cultivating the cells without Irinotecan, they were infected with 10 pfu/cell dl520 and subsequently incubated without Irinotecan for another 3 days. DNA was isolated as described above.
Subsequently […] were digested with restriction enzyme Kpn I and a Southern Blot analysis performed. A part of the adenoviral genome (position: 22734-24235) generated by means of PCR was used as a probe.

U2OS cells = assay: Oncolytic assay with daunorubicine and dl520, crystal violet; conditions: 40 ng/ml daunorubicine 3 hours before infection
Procedure: (§1) In the practising of the oncolytic assays the following procedure was followed: 200,000 cells (HeLa and U2OS, respectively) were plated into each well of a 6 well plate. On the next day 40 ng/ml (final concentration) of daunorubicine were added. After 3 hours of incubation the cells were infected with 10 and 30 pfu dl520/cell, respectively. Subsequently, the cells were incubated in cytostatic free medium. After 3-5 days the cells were stained using crystal violet.

HeLa cells = assay: as above; conditions: 40 ng/ml daunorubicine 3 hours before infection
Procedure: as §1

SMILES: CC(/C=C/C(=O)NO)=C\[C@@H](C)C(=O)c1ccc(N(C)C)cc1 [Trichostatin A]
- CAR-positive cells [1]: 56.2%
- viral replication (dl520, Southern blot) (U373 tumour cells [2]): significantly increased

SMILES: CCc1c2c(nc3ccc(OC(=O)N4CCC(N5CCCCC5)CC4)cc13)-c1cc3c(c(=O)n1C2)COC(=O)[C@]3(O)CC [Irinotecan]
- adenoviral replication (dl520, Southern blot) (U373 tumour cells [3]): significantly increased

SMILES: COc1cccc2c1C(=O)c1c(O)c3c(c(O)c1C2=O)C[C@@](O)(C(C)=O)C[C@@H]3O[C@H]1C[C@H](N)[C@H](O)[C@H](C)O1 [daunorubicine]
- effect on replication of dl520 (U2OS cells): induces the replication of dl520
- effect on replication of dl520 (HeLa cells): induces the replication of dl520
